In patent publication EP1880990A1, “NOVEL ORGANIC ELECTROLUMINESCENT MATERIAL, ORGANIC ELECTROLUMINESCENT ELEMENT EMPLOYING THE SAME, AND THIN-FILM-FORMING SOLUTION FOR ORGANIC ELECTROLUMINESCENCE” (IDEMITSU KOSAN CO., LTD., priority 2005, dated 2006):

Assays:
[1] = Solubility in toluene; format: physicochemical; details: for Solubility (toluene): soluble in an amount of ... or more; for Preparation of 1 % by mass toluene solution: 1 % by mass in toluene
Excerpt: A preparation of 1 % by mass toluene solution was tried employing Compound C below instead of Compound 1 in accordance with the same procedures as those conducted in Example 1.
A preparation of 1 % by mass toluene solution was tried employing Compound D below instead of Compound 1 in accordance with the same procedures as those conducted in Example 1.

[2] = Ionization potential; format: physicochemical

| SMILES | Solubility (toluene) [1] | Ionization potential [2] | Preparation of 1 % by mass toluene solution [1] |
| --- | --- | --- | --- |
| CCC(C)c1ccc(N(c2ccc(-c3ccc(N(c4ccccc4)c4ccc5c(c4)C(C)(C)c4ccccc4-5)cc3)cc2)c2ccc(-c3cccc(-c4ccc(N(c5ccc(-c6ccc(N(c7ccccc7)c7ccc8c(c7)C(C)(C)c7ccccc7-8)cc6)cc5)c5ccc(C(C)CC)cc5)cc4)c3)cc2)cc1 (centres unmarked) [Compound 3] | ≥ 1 wt % | – | – |
| CC1(C)c2ccccc2-c2ccc(N(c3ccccc3)c3ccc(-c4ccc(N(c5ccccc5)c5ccc(-c6cccc(-c7ccc(N(c8ccccc8)c8ccc(-c9ccc(N(c%10ccccc%10)c%10ccc%11c(c%10)C(C)(C)c%10ccccc%10-%11)cc9)cc8)cc7)c6)cc5)cc4)cc3)cc21 [Compound 2] | ≥ 1 wt % | – | – |
| CCCCCCCCC1(CCCCCCCC)c2cc(N(c3ccccc3)c3ccc(-c4ccc(N(c5ccc(-c6ccccc6)cc5)c5ccc(-c6ccccc6)cc5)cc4)cc3)ccc2-c2ccc(N(c3ccccc3)c3ccc(-c4ccc(N(c5ccc(-c6ccccc6)cc5)c5ccc(-c6ccccc6)cc5)cc4)cc3)cc21 [Compound 10] | ≥ 5 wt % | 5.14 eV | – |
| CCC(C)c1ccc(N(c2ccc(-c3ccc(-c4cccc(-c5cccc(-c6ccc(-c7ccc(N(c8ccc(-c9ccc(N(c%10ccc(-c%11ccccc%11)cc%10)c%10ccc(-c%11ccccc%11)cc%10)cc9)cc8)c8ccc(C(C)CC)cc8)cc7)cc6)c5)c4)cc3)cc2)c2ccc(-c3ccc(N(c4ccc(-c5ccccc5)cc4)c4ccc(-c5ccccc5)cc4)cc3)cc2)cc1 (centres unmarked) [Compound 7] | ≥ 1 wt % | – | – |
| c1ccc(N(c2ccc(-c3ccc(N(c4ccccc4)c4cccc5ccccc45)cc3)cc2)c2ccc(-c3cccc(-c4cccc(-c5ccc(N(c6ccccc6)c6ccc(-c7ccc(N(c8ccccc8)c8cccc9ccccc89)cc7)cc6)cc5)c4)c3)cc2)cc1 [Compound 5] | ≥ 1 wt % | – | – |
| CCC(C)c1ccc(N(c2ccc(-c3ccc(-c4cccc(-c5ccc(-c6ccc(N(c7ccc(-c8ccc(N(c9ccccc9)c9ccccc9)cc8)cc7)c7ccc(C(C)CC)cc7)cc6)cc5)c4)cc3)cc2)c2ccc(-c3ccc(N(c4ccccc4)c4ccccc4)cc3)cc2)cc1 (centres unmarked) [Compound 8] | ≥ 1 wt % | – | – |
| CC1(C)c2ccccc2-c2ccc(N(c3ccccc3)c3ccc(-c4ccc(N(c5ccccc5)c5ccc(-c6cccc(-c7cccc(-c8ccc(N(c9ccccc9)c9ccc(-c%10ccc(N(c%11ccccc%11)c%11ccc%12c(c%11)C(C)(C)c%11ccccc%11-%12)cc%10)cc9)cc8)c7)c6)cc5)cc4)cc3)cc21 [Compound 9] | ≥ 1 wt % | – | – |
| CCCCCCCCC1(CCCCCCCC)c2cc(N(c3ccccc3)c3ccc(-c4ccc(N(c5ccccc5)c5ccc6c(c5)C(C)(C)c5ccccc5-6)cc4)cc3)ccc2-c2ccc(N(c3ccccc3)c3ccc(-c4ccc(N(c5ccccc5)c5ccc6c(c5)C(C)(C)c5ccccc5-6)cc4)cc3)cc21 [Compound 4] | ≥ 1 wt % | – | – |
| c1ccc(N(c2ccc(-c3ccc(N(c4ccccc4)c4cccc5ccccc45)cc3)cc2)c2cccc3ccccc23)cc1 [Compound C, reference compound] | – | – | did not dissolve in toluene |
| c1ccc(-c2ccc(N(c3ccc(-c4ccccc4)cc3)c3ccc(-c4ccc(N(c5ccc(-c6ccccc6)cc5)c5ccc(-c6ccccc6)cc5)cc4)cc3)cc2)cc1 [Compound D, reference compound] | – | – | did not dissolve in toluene |
